Target: ATP-dependent translocase ABCB1 (Homo sapiens, UniProt P08183)
Assay: TP_TRANSPORTER: cell accumulation in K562/ADR cells
Format: functional, cell-based

Chain of ATP-dependent translocase ABCB1 (P08183 whole entry): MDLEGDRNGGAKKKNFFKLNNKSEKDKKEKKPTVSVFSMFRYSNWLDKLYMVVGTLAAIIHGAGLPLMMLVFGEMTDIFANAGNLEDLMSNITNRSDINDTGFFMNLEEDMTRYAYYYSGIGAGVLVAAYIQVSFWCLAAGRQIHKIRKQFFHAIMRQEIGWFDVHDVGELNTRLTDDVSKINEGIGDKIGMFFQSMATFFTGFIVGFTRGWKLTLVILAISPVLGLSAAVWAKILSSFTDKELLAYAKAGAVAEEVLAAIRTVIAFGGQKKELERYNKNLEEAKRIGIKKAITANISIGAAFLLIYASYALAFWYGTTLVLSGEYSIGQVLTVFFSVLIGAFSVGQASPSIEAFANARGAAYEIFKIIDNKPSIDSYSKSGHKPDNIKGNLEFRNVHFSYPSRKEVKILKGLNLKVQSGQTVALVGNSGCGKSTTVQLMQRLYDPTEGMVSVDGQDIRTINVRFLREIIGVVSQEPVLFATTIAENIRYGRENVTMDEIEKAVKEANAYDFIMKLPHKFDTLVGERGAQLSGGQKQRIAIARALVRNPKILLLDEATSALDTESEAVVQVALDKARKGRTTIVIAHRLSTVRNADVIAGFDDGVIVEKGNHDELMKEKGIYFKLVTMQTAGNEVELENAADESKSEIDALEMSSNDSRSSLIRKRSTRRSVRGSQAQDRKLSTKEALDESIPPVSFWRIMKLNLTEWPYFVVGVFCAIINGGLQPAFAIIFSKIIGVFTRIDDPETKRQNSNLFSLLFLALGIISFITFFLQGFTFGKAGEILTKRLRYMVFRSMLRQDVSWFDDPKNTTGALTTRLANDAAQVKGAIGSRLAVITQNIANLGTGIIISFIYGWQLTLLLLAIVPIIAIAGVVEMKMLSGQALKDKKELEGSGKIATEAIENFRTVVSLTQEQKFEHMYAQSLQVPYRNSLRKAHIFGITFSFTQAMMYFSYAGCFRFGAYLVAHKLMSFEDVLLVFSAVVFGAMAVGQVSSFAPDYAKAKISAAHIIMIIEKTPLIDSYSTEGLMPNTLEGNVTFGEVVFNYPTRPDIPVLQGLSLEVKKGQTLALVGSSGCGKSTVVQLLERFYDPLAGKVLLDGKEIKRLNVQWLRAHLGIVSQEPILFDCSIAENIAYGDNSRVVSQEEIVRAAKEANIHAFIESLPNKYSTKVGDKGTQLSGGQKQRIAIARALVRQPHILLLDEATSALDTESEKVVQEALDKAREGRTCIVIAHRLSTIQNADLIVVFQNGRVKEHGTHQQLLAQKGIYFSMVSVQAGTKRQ

Activity: substrate [+]
SMILES: C[C@H]1COc2c(C3(N)CC3)c(F)cc3c(=O)c(C(=O)O)cn1c23 [PAZUFLOXACIN]

Reference: ChEMBL document CHEMBL2073995, “Possible involvement of P-glycoprotein in renal excretion of pazufloxacin in rats” (Eur J Pharmacol, 2004)
